We go through eleven compounds from ChEMBL document CHEMBL1131808, “Potent immunosuppressive C32-O-arylethyl ether derivatives of ascomycin with reduced toxicity” (Bioorg Med Chem Lett, 1999).

Active and inactive are the calls of the source. No cut-off for these calls is given here.

Assay [1] deals with Mus musculus. Kind of assay: In vivo immunosuppression in murine models by splenic T-cell proliferation assay after intravenous administration. In kind it is functional.
The test system of assay [2] is Mus musculus. As to the kind of experiment: In vivo immunosuppression in murine models by splenic T-cell proliferation assay after peroral administration. In kind it is functional. Conditions: po.
Assay [3] concerns the target Peptidyl-prolyl cis-trans isomerase FKBP1A (Homo sapiens, UniProt P62942). Kind of assay: Effective concentration against FK506 binding protein 12 using [3H]-dihydro FK-506.
Assay [4] is filed under the species Mus musculus. As to the kind of experiment: The compound was tested for its inhibitory activity against T-cell proliferation using murine splenic T-cells. In kind it is functional.
Assay [5] concerns Rattus norvegicus. As to the kind of experiment: The compound was tested for % reduction of nephrotoxicity in rat after intravenous administration at dose 1.7 mg/kg. In kind it is functional.
Assay [6] has as its system Rattus norvegicus. Kind of assay: Tested for nephrotoxicity in Dawley rats and measured for plasma drug level after intravenous administration at dose 10 mg/kg. In kind it is functional.
The test system of assay [7] is Rattus norvegicus. As to the kind of experiment: Tested for nephrotoxicity in Dawley rats and measured for plasma drug level after intravenous administration at dose 5 mg/kg. In kind it is functional.
Assay [8] has as its system Rattus norvegicus. Kind of assay: Tested for nephrotoxicity in Dawley rats and measured for blood urea nitrogen levels after intravenous administration at dose 2.5 mg/kg. In kind it is functional.
The subject of assay [9] is Rattus norvegicus. As to the kind of experiment: Tested for nephrotoxicity in Dawley rats and measured for blood urea nitrogen levels after intravenous administration at dose 5 mg/kg. In kind it is functional.
The test system of assay [10] is Rattus norvegicus. As to the kind of experiment: Cytotoxicity was determined by hypothermia induction after intravenous administration in rat. In kind it is functional.
For assay [11], the system named is Rattus norvegicus. Kind of assay: Tested for nephrotoxicity in Dawley rats and measured for plasma drug level after intravenous administration at dose 2.5 mg/kg. In kind it is functional.
For assay [12], the system named is Rattus norvegicus. Kind of assay: Tested for nephrotoxicity in Dawley rats and measured for blood urea nitrogen levels after intravenous administration at dose 10 mg/kg. In kind it is functional.
In assay [13] the test system is Rattus norvegicus. As to the kind of experiment: The compound was tested for % reduction of nephrotoxicity in rat after intravenous administration at dose 5 mg/kg. In kind it is functional.
The nature of assay [14]: Ratio of hypothermia (ED50) by Murine (ED50) in vivo. In kind it is functional.
Assay [15] relates to Rattus norvegicus. As to the kind of experiment: The compound was tested for % reduction of nephrotoxicity in rat after intravenous administration at dose 10 mg/kg. In kind it is functional.
In assay [16] the test system is Rattus norvegicus. Kind of assay: The compound was tested for % reduction of nephrotoxicity in rat after intravenous administration at dose 20 mg/kg; NE denotes no effect. In kind it is functional, organism-based. Also on record: dose 20 mg/kg.
For assay [17], the system named is Rattus norvegicus. As to the kind of experiment: Tested for nephrotoxicity in Dawley rats and measured for blood urea nitrogen levels after intravenous administration at dose 20 mg/kg. In kind it is functional.
The test system of assay [18] is Rattus norvegicus. As to the kind of experiment: Tested for nephrotoxicity in Dawley rats and measured for plasma drug level after intravenous administration at dose 40 mg/kg. In kind it is functional.
For assay [19], the system named is Rattus norvegicus. Kind of assay: The compound was tested for % reduction of nephrotoxicity in rat after intravenous administration at dose 20 mg/kg. In kind it is functional.
For assay [20], the system named is Rattus norvegicus. As to the kind of experiment: Tested for nephrotoxicity in Dawley rats and measured for plasma drug level after intravenous administration at dose 20 mg/kg. In kind it is functional.
Assay [21] deals with Rattus norvegicus. Kind of assay: Tested for nephrotoxicity in Dawley rats and measured for blood urea nitrogen levels after intravenous administration at dose 40 mg/kg. In kind it is functional.

Chain of Peptidyl-prolyl cis-trans isomerase FKBP1A (P62942 whole entry): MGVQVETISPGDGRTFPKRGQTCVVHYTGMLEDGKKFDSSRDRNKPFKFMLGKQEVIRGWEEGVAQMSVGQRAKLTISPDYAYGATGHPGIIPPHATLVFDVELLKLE

Turning to `CC[C@@H]1/C=C(\C)C[C@H](C)C[C@H](OC)[C@H]2O[C@@](O)(C(=O)C(=O)N3CCCC[C@H]3C(=O)O[C@H](/C(C)=C/C3CC[C@@H](OC[C@H](O)c4cc5ccccc5s4)[C@H](OC)C3)[C@H](C)[C@H](O)CC1=O)[C@H](C)C[C@@H]2OC` (stereo partly specified), the 50% effective dose (ED50) with Mus musculus [1] was determined as 0.53 mg/kg; in the assay with Mus musculus [2] it was 5.6 mg/kg. In assay [3], this compound returned an EC50 of 12 nM. The same compound had an IC50 in the assay filed under Mus musculus [4] of 0.47 nM.
The compound `C=CC[C@@H]1/C=C(\C)C[C@H](C)C[C@H](OC)[C@H]2O[C@@](O)(C(=O)C(=O)N3CCCC[C@H]3C(=O)O[C@H](/C(C)=C/[C@@H]3CC[C@@H](O)[C@H](OC)C3)[C@H](C)C(O)CC1=O)[C@H](C)C[C@@H]2OC` (single isomer, unassigned) [TACROLIMUS ANHYDROUS] yielded a Reduction in the assay on Rattus norvegicus [5] of 45%. Further, the median effective dose (ED50) in the assay on Mus musculus [1] turned out to be 0.22 mg/kg; with Mus musculus [2], 2.6 mg/kg; in the assay on Rattus norvegicus [10], 3.7 mg/kg. Besides, the Nephrotoxicity in the assay with Rattus norvegicus [6] was 611 ng/mL; with Rattus norvegicus [7] it was 45 ng/mL; in the assay on Rattus norvegicus [8] it was 18.1 mg/dL; with Rattus norvegicus [9] it was 21 mg/dL; with Rattus norvegicus [11] it was 13 ng/mL; with Rattus norvegicus [12], 26 mg/dL. Also, the IC50 in the assay filed under Mus musculus [4] turned out to be 0.2 nM.
Consider `CC[C@@H]1/C=C(\C)C[C@H](C)C[C@H](OC)[C@H]2O[C@@](O)(C(=O)C(=O)N3CCCC[C@H]3C(=O)O[C@H](/C(C)=C/C3CC[C@@H](OC[C@@H](O)c4cc5ccccc5s4)[C@H](OC)C3)[C@H](C)[C@H](O)CC1=O)[C@H](C)C[C@@H]2OC` (stereo partly specified), for which the ED50 was 0.75 mg/kg in the assay with Mus musculus [1], 6.4 mg/kg in the assay with Mus musculus [2] and 14.8 mg/kg in the assay with Rattus norvegicus [10]. Further, in the assay with Rattus norvegicus [13], the Reduction is 32%. Moreover, the Therapeutic index in assay [14] was determined as 20. Besides, the EC50 in assay [3] worked out at 11.2 nM. The compound further returned an IC50 in the assay filed under Mus musculus [4] of 0.39 nM.
Take `CC[C@@H]1/C=C(\C)C[C@H](C)C[C@H](OC)[C@H]2O[C@@](O)(C(=O)C(=O)N3CCCC[C@H]3C(=O)O[C@H](/C(C)=C/C3CC[C@@H](OC[C@@H](O)c4ccc(F)c(F)c4)[C@H](OC)C3)[C@H](C)[C@H](O)CC1=O)[C@H](C)C[C@@H]2OC` (stereo partly specified): in the assay with Rattus norvegicus [15], the Reduction worked out at 44%. For the same compound, the 50% effective dose (ED50) in the assay with Mus musculus [1] amounted to 0.19 mg/kg; in the assay on Mus musculus [2], 2.8 mg/kg; in the assay on Rattus norvegicus [10], 10 mg/kg. In [14], the Therapeutic index is 52. Further, the EC50 in assay [3] stood at 7.5 nM. Also, in the assay filed under Mus musculus [4], the IC50 was 0.14 nM.
Consider `CC[C@@H]1/C=C(\C)C[C@H](C)C[C@H](OC)[C@H]2O[C@@](O)(C(=O)C(=O)N3CCCC[C@H]3C(=O)O[C@H](/C(C)=C/C3CC[C@@H](OC[C@@H](O)c4cc(C)cc(C)c4)[C@H](OC)C3)[C@H](C)[C@H](O)CC1=O)[C@H](C)C[C@@H]2OC` (stereo partly specified), for which the ED50 in the assay with Mus musculus [1] amounted to 0.45 mg/kg; with Mus musculus [2], 4.5 mg/kg; in the assay on Rattus norvegicus [10] it was 10.3 mg/kg. Further, in assay [14], the Therapeutic index came to 23. The compound further yielded a concentration for a half-maximal effect (EC50) in [3] of 7.5 nM. Also, in the assay on Rattus norvegicus [16], the Reduction result is “inactive”. The same compound returned an IC50 in the assay filed under Mus musculus [4] of 0.23 nM.
For the compound `CC[C@@H]1/C=C(\C)C[C@H](C)C[C@H](OC)[C@H]2O[C@@](O)(C(=O)C(=O)N3CCCC[C@H]3C(=O)O[C@H](/C(C)=C/C3CC[C@@H](OC[C@H](O)c4cc(C)cc(C)c4)[C@H](OC)C3)[C@H](C)[C@H](O)CC1=O)[C@H](C)C[C@@H]2OC` (stereo partly specified), the Reduction in the assay on Rattus norvegicus [15] is 48%. Also, the 50% effective dose (ED50) with Mus musculus [1] is 0.49 mg/kg; in the assay with Mus musculus [2], 4.8 mg/kg; in the assay with Rattus norvegicus [10], 7.25 mg/kg. The Therapeutic index in assay [14] amounted to 15. For the same compound, the EC50 in assay [3] is 9 nM. Also, in the assay filed under Mus musculus [4], the half-inhibitory concentration (IC50) was 0.34 nM.
`CC[C@@H]1/C=C(\C)C[C@H](C)C[C@H](OC)[C@H]2O[C@@](O)(C(=O)C(=O)N3CCCC[C@H]3C(=O)O[C@H](/C(C)=C/C3CC[C@@H](OC[C@@H](O)c4ccc5ccccc5c4)[C@H](OC)C3)[C@H](C)[C@H](O)CC1=O)[C@H](C)C[C@@H]2OC` (stereo partly specified): the Nephrotoxicity in the assay on Rattus norvegicus [17] came out at 24.7 mg/dL; in the assay on Rattus norvegicus [18] it was 3120 ng/mL; with Rattus norvegicus [6] it was 478 ng/mL; with Rattus norvegicus [7], 239 ng/mL; with Rattus norvegicus [20], 1897 ng/mL; with Rattus norvegicus [9] it was 16.3 mg/dL. Also, the results for the Nephrotoxicity with Rattus norvegicus [21] and in the assay with Rattus norvegicus [12] were 39.3 mg/dL and 17.7 mg/dL, respectively. The figures for the ED50 with Mus musculus [1], with Mus musculus [2] and with Rattus norvegicus [10] were 0.38 mg/kg, 3.7 mg/kg and 21.6 mg/kg, respectively. The Reduction in the assay with Rattus norvegicus [19] was 41%. In addition, in assay [14], the Therapeutic index came out at 57. For the same compound, a half-maximal effect in [3] (EC50) was put at 21.1 nM. Further, in the assay listed under Mus musculus [4], the half-inhibitory concentration (IC50) was 0.33 nM.
Regarding `CC[C@@H]1/C=C(\C)C[C@H](C)C[C@H](OC)[C@H]2O[C@@](O)(C(=O)C(=O)N3CCCC[C@H]3C(=O)O[C@H](/C(C)=C/C3CC[C@@H](OC[C@H](O)c4ccc5ccccc5c4)[C@H](OC)C3)[C@H](C)[C@H](O)CC1=O)[C@H](C)C[C@@H]2OC` (stereo partly specified), the 50% effective dose (ED50) was found to be 0.38 mg/kg with Mus musculus [1], 3.4 mg/kg in the assay with Mus musculus [2] and 14.2 mg/kg with Rattus norvegicus [10]. This compound also displayed a Reduction in the assay on Rattus norvegicus [19] of 40%. In addition, the Therapeutic index in assay [14] came out at 37. The compound also came in with an EC50 in assay [3] of 18 nM. The compound also showed an IC50 in the assay listed under Mus musculus [4] of 0.34 nM.
On to `CC[C@@H]1/C=C(\C)C[C@H](C)C[C@H](OC)[C@H]2O[C@@](O)(C(=O)C(=O)N3CCCC[C@H]3C(=O)O[C@H](/C(C)=C/C3CC[C@@H](OC[C@@H](O)c4cccc(C(F)(F)F)c4)[C@H](OC)C3)[C@H](C)[C@H](O)CC1=O)[C@H](C)C[C@@H]2OC` (stereo partly specified), for which the ED50 in the assay on Mus musculus [1] was 0.31 mg/kg; in the assay with Mus musculus [2], 3.7 mg/kg; in the assay on Rattus norvegicus [10] it was 12.8 mg/kg. Moreover, the Therapeutic index in assay [14] turned out to be 41. A half-maximal response in assay [3] (EC50) required 45 nM. Besides, in the assay on Rattus norvegicus [16], the Reduction entry was “inactive”. This compound also showed a half-maximal inhibitory concentration (IC50) in the assay listed under Mus musculus [4] of 0.38 nM.
For `CC[C@@H]1/C=C(\C)C[C@H](C)C[C@H](OC)[C@H]2O[C@@](O)(C(=O)C(=O)N3CCCC[C@H]3C(=O)O[C@H](/C(C)=C/C3CC[C@@H](OC[C@H](O)c4ccc(F)c(F)c4)[C@H](OC)C3)[C@H](C)[C@H](O)CC1=O)[C@H](C)C[C@@H]2OC` (stereo partly specified), the values for the median effective dose (ED50) in the assay on Mus musculus [1], in the assay with Mus musculus [2] and in the assay on Rattus norvegicus [10] were 0.19 mg/kg, 3.9 mg/kg and 13.7 mg/kg, respectively. Also, the Reduction with Rattus norvegicus [13] amounted to 54%. Also, in assay [14], the Therapeutic index was found to be 72. In [3], this compound gave a concentration for a half-maximal effect (EC50) of 13.6 nM. Besides, the half-maximal inhibitory concentration (IC50) in the assay filed under Mus musculus [4] was found to be 0.11 nM.
Consider `CC[C@@H]1/C=C(\C)C[C@H](C)C[C@H](OC)[C@H]2O[C@@](O)(C(=O)C(=O)N3CCCC[C@H]3C(=O)O[C@H](/C(C)=C/C3CC[C@@H](OC[C@H](O)c4cccc(C(F)(F)F)c4)[C@H](OC)C3)[C@H](C)[C@H](O)CC1=O)[C@H](C)C[C@@H]2OC` (stereo partly specified), for which the median effective dose (ED50) with Mus musculus [1] stood at 0.29 mg/kg; in the assay with Mus musculus [2] it was 5 mg/kg; in the assay on Rattus norvegicus [10], 13.7 mg/kg. In the assay on Rattus norvegicus [13], the Reduction is recorded as 51%. Moreover, the Therapeutic index in assay [14] is listed as 47. This compound also returned a half-maximal effective concentration (EC50) in assay [3] of 45 nM. For the same compound, in the assay filed under Mus musculus [4], the concentration for half-maximal inhibition (IC50) is 0.38 nM.
